Results published in PubChem BioAssay AID2060619 (Molecular Pharmacology Branch, DTP, NCI, 2025).
Values joined by “and” are separate entries in the source; they are usually repeats but may differ in a detail not shown here. Equal values may be shown once.

Test system: 323965-272-R-J2-PDC complex spheroid viability
Experiment: Anticancer human tumor 323965-272-R-J2-PDC patient-derived pancreatic carcinoma cell line growth inhibition [CLK]
Conditions: for viability, T/C: stronger effect = lower value
Procedure, shortened: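 Multi-cell-type spheroids combined patient-derived tumor cells with HUVEC endothelial cells and human mesenchymal stem cells. Paired agents were dosed in half-log steps down from about clinical Cmax, or from 10 microM where Cmax was unknown.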

[1] = curve of first compound, second compound 0.0316 µM
[2] = curve of first compound, second compound 0.1 µM
[3] = curve of first compound, second compound 0.316 µM
[4] = curve of first compound, second compound 1 µM
[5] = curve of first compound, second compound 3.16 µM
[6] = curve of first compound, second compound 10 µM
[7] = second compound 0.0316 µM, first compound 0.0316 µM
[8] = second compound 0.0316 µM, first compound 0.1 µM
[9] = second compound 0.0316 µM, first compound 0.316 µM
[10] = second compound 0.0316 µM, first compound 1 µM
[11] = second compound 0.0316 µM, first compound 3.16 µM
[12] = second compound 0.0316 µM, first compound 10 µM
[13] = second compound 0.1 µM, first compound 0.0316 µM
[14] = second compound 0.1 µM, first compound 0.1 µM
[15] = second compound 0.1 µM, first compound 0.316 µM
[16] = second compound 0.1 µM, first compound 1 µM
[17] = second compound 0.1 µM, first compound 3.16 µM
[18] = second compound 0.1 µM, first compound 10 µM
[19] = second compound 0.316 µM, first compound 0.0316 µM
[20] = second compound 0.316 µM, first compound 0.1 µM
[21] = second compound 0.316 µM, first compound 0.316 µM
[22] = second compound 0.316 µM, first compound 1 µM
[23] = second compound 0.316 µM, first compound 3.16 µM
[24] = second compound 0.316 µM, first compound 10 µM
[25] = second compound 1 µM, first compound 0.0316 µM
[26] = second compound 1 µM, first compound 0.1 µM
[27] = second compound 1 µM, first compound 0.316 µM
[28] = second compound 1 µM, first compound 1 µM
[29] = second compound 1 µM, first compound 3.16 µM
[30] = second compound 1 µM, first compound 10 µM
[31] = second compound 3.16 µM, first compound 0.0316 µM
[32] = second compound 3.16 µM, first compound 0.1 µM
[33] = second compound 3.16 µM, first compound 0.316 µM
[34] = second compound 3.16 µM, first compound 1 µM
[35] = second compound 3.16 µM, first compound 3.16 µM
[36] = second compound 3.16 µM, first compound 10 µM
[37] = second compound 10 µM, first compound 0.0316 µM
[38] = second compound 10 µM, first compound 0.1 µM
[39] = second compound 10 µM, first compound 0.316 µM
[40] = second compound 10 µM, first compound 1 µM
[41] = second compound 10 µM, first compound 3.16 µM
[42] = second compound 10 µM, first compound 10 µM
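Further: spheroids exposed to agents for seven days before readout.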
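Wherever viability, T/C is given: percent of DMSO vehicle control wells so 100% = untreated growth.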

With `COc1ccc([C@@H](O)c2cc(-c3ncnc4cc(N5CCOCC5)ccc34)c(F)cc2Cl)nn1` the viability, T/C (compound 0.0316 µM) was 105% and 109%, the viability, T/C (compound 0.1 µM) was 116% and 106% and the viability, T/C (compound 0.316 µM) was 110% and 95.9%. The viability, T/C (compound 1 µM) was 92.8% and 92.9%, the viability, T/C (compound 3.16 µM) was 79.5% and 68.8% and the viability, T/C (compound 10 µM) was 50.6% and 50.3%. For the same molecule, the IC50 (curve of compound) was > 10000 nM and 9920 nM.

`O=c1[nH]cc(F)c(=O)[nH]1` + CN1CCN(c2cc(C(=O)Nc3cc4cc(-c5cnn(C)c5)ccc4cn3)ccn2)CC1 was tested, and the IC50 [1] was 7400 nM, the IC50 [2] was 3150 nM and the IC50 [3] was < 31.6 nM. The IC50 [4] was < 31.6 nM, the IC50 [5] was < 31.6 nM and the IC50 [6] was < 31.6 nM. It also gave a viability, T/C [7] of 99.5%, a viability, T/C [8] of 96.8% and a viability, T/C [9] of 99.3%. It also gave a viability, T/C [10] of 85.8%, a viability, T/C [11] of 63% and a viability, T/C [12] of 45.4%. It also gave a viability, T/C [13] of 62.8%, a viability, T/C [14] of 85.4% and a viability, T/C [15] of 73.5%. It also gave a viability, T/C [16] of 67.4%, a viability, T/C [17] of 50.2% and a viability, T/C [18] of 36.7%. It also gave a viability, T/C [19] of 26.1%, a viability, T/C [20] of 27% and a viability, T/C [21] of 26.6%. For the same molecule, the viability, T/C [22] was 25.2%, the viability, T/C [23] was 24.5% and the viability, T/C [24] was 22.6%. The viability, T/C [25] was 3.34%, the viability, T/C [26] was 2.81% and the viability, T/C [27] was 3.78%. The viability, T/C [28] was 3.65%, the viability, T/C [29] was 4.75% and the viability, T/C [30] was 3.29%. It also gave a viability, T/C [31] of 4.71%, a viability, T/C [32] of 4.34% and a viability, T/C [33] of 4.13%. The viability, T/C [34] was 4.08%, the viability, T/C [35] was 6.26% and the viability, T/C [36] was 5.19%. The viability, T/C [37] was 3.98%, the viability, T/C [38] was 3.73% and the viability, T/C [39] was 3.94%. It also gave a viability, T/C [40] of 4.27%, a viability, T/C [41] of 7.34% and a viability, T/C [42] of 3.84%.

With `CC(C)CC(NC(=O)C(Cc1ccccc1)NC(=O)c1cnccn1)B(O)O` (configuration not stated) the viability, T/C (compound 0.000949 µM) was 107% and 115%, the viability, T/C (compound 0.003 µM) was 75.1% and 49.5% and the viability, T/C (compound 0.00949 µM) was 5.4% and 2.55%. For the same molecule, the viability, T/C (compound 0.03 µM) was 0.66% and 1.05%, the viability, T/C (compound 0.0949 µM) was 0.26% and 0.62% and the viability, T/C (compound 0.3 µM) was 2% and 3.78%. For the same molecule, the IC50 (curve of compound) was 4.54 nM and 2.98 nM.

`CC(Nc1ccc2c(c1)OCCn1cc(N3C(=O)OCC3C(F)F)nc1-2)C(N)=O` (configuration not stated) was tested, and the viability, T/C (compound 0.0316 µM) was 94.2% and 96.6%, the viability, T/C (compound 0.1 µM) was 89.2% and 83.2% and the viability, T/C (compound 0.316 µM) was 76.2% and 66.7%. The viability, T/C (compound 1 µM) was 67.8% and 65.5%, the viability, T/C (compound 3.16 µM) was 63.1% and 68.3% and the viability, T/C (compound 10 µM) was 50.9% and 47.6%. For the same molecule, the IC50 (curve of compound) was > 10000 nM.

`CCN1CCN(Cc2ccc(Nc3ncc(F)c(-c4cc(F)c5nc(C)n(C(C)C)c5c4)n3)nc2)CC1` was tested, and the viability, T/C (compound 0.00316 µM) was 91.3% and 105%, the viability, T/C (compound 0.01 µM) was 95.6% and 95% and the viability, T/C (compound 0.0316 µM) was 81.2% and 68.3%. For the same molecule, the viability, T/C (compound 0.1 µM) was 67.5% and 69.9%, the viability, T/C (compound 0.316 µM) was 73.3% and 68.3% and the viability, T/C (compound 1 µM) was 72.3% and 68.7%. For the same molecule, the IC50 (curve of compound) was > 1000 nM.

In the case of `C=CC(=O)N1CCN(c2nc(=O)n(-c3c(C)ccnc3C(C)C)c3nc(-c4c(O)cccc4F)c(F)cc23)C(C)C1` (configuration not stated) + CNC(=O)c1ccc(Nc2nc(OC3CCCC3)c3c(-c4ccc5nc(C)oc5c4)c[nH]c3n2)c(OC)c1, the IC50 [1] is reported as > 10000 nM, the IC50 [2] is reported as > 10000 nM and the IC50 [3] is reported as < 31.6 nM. The IC50 [4] was < 31.6 nM, the IC50 [5] was < 31.6 nM and the IC50 [6] was < 31.6 nM. For the same molecule, the viability, T/C [7] was 61.4%, the viability, T/C [8] was 66.7% and the viability, T/C [9] was 66.9%. The viability, T/C [10] was 73.9%, the viability, T/C [11] was 69% and the viability, T/C [12] was 76.4%. For the same molecule, the viability, T/C [13] was 66.6%, the viability, T/C [14] was 59.5% and the viability, T/C [15] was 59.1%. The viability, T/C [16] was 55.4%, the viability, T/C [17] was 59.5% and the viability, T/C [18] was 58.7%. The viability, T/C [19] was 44.8%, the viability, T/C [20] was 41.1% and the viability, T/C [21] was 39.7%. The viability, T/C [22] was 47.8%, the viability, T/C [23] was 45.1% and the viability, T/C [24] was 44.4%. For the same molecule, the viability, T/C [25] was 28.3%, the viability, T/C [26] was 25.1% and the viability, T/C [27] was 24.4%. It also gave a viability, T/C [28] of 27.9%, a viability, T/C [29] of 28.2% and a viability, T/C [30] of 29%. The viability, T/C [31] was 26.9%, the viability, T/C [32] was 25.8% and the viability, T/C [33] was 28.5%. It also gave a viability, T/C [34] of 23.9%, a viability, T/C [35] of 26.6% and a viability, T/C [36] of 30.3%. The viability, T/C [37] was 23.2%, the viability, T/C [38] was 21.4% and the viability, T/C [39] was 26.9%. For the same molecule, the viability, T/C [40] was 24.4%, the viability, T/C [41] was 27.1% and the viability, T/C [42] was 28.6%.
